Laboratory results taken from US10766908B2, “Calcium L-lactate frameworks as naturally degradable carriers” (priority 2017, dated 2020).

Test: Slow release of cis-1,3-dichloropropene under air flow, sample weight monitored by thermogravimetric instrument
Type: physicochemical
Conditions: air flow of 1.0 cm^3 min^−1, 25° C.
Procedure: Here we present the use of MOF-1201 for this purpose Fumigant cis-1,3-dichloropropene has been chosen as an example. Static adsorption isotherm of cis-1,3-dichloropropene in MOF-1201 at 25° C. is shown in FIG. 3c, displaying a sharp uptake of 1.4 mmol g^−1 (13 wt %) in low partial pressure range (P/P0=0.1), attributed to adsorption within the micropores. […] In contrast, the cis-1,3-dichloropropene encapsulated in MOF-1201 released in a much slower manner, with 80% of the total (10.5 wt %) released in 100,000 min g^−1, corresponding to 100 times slower compared with liquid cis-1,3-dichloropropene under the same conditions.
Slow release experiments were carried out using the TA Q500 thermal analysis system under constant air flow rate of 1 cm^3 min ^−1.

## Cl/C=C\CCl [liquid cis-1,3-dichloropropene, cis-1,3-dichloropropene]
  time for 80% of the total weight to be released/evaporated: ≤ 1,000 min g^−1
